What all share (format): cell membranes
Assay [1] has as its target T1, GABA-A receptor; alpha-1/beta-3/gamma-2 (Homo sapiens, UniProt P14867+P18507+P28472).
T1 sequence (P14867 whole entry): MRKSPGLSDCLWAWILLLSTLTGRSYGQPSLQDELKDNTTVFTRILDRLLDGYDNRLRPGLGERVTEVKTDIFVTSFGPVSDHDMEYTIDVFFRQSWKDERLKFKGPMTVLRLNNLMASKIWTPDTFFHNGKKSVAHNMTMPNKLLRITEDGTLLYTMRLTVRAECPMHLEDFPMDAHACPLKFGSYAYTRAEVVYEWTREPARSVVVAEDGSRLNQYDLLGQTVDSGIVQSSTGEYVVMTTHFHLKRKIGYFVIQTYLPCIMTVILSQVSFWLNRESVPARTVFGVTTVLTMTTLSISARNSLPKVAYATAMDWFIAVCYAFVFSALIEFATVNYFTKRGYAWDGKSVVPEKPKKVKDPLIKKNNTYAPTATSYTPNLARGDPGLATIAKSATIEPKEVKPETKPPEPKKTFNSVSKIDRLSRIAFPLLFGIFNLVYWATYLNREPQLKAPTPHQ
T1 sequence (P18507 whole entry): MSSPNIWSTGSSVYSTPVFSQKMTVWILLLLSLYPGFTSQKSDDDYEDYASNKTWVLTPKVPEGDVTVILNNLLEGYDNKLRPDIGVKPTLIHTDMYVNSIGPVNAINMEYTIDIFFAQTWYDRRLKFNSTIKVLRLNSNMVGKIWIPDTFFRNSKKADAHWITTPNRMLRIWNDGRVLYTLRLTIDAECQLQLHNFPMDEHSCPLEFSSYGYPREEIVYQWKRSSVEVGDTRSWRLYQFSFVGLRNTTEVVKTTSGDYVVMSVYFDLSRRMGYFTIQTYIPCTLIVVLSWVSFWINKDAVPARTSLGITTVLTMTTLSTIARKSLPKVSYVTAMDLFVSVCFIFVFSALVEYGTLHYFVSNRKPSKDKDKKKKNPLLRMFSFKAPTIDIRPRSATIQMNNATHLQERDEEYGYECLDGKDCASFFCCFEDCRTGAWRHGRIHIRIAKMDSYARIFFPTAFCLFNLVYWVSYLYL
T1 sequence (P28472 whole entry): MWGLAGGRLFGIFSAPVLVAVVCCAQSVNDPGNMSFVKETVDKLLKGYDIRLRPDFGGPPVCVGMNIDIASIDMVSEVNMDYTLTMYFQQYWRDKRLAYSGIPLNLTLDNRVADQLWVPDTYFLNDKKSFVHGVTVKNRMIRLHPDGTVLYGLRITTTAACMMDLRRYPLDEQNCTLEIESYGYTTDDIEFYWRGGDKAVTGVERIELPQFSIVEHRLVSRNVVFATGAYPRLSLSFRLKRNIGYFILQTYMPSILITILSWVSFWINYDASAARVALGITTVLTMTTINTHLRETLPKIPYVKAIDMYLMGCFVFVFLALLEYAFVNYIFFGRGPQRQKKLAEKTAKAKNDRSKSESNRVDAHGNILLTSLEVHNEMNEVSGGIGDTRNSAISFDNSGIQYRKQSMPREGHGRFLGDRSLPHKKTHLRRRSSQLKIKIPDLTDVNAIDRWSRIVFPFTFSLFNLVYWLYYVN
In words: Inhibition of R-mTFD-MPAB-induced [3H]muscimol binding to full length human N-terminal flag-tagged alpha1-beta3-C-terminal 1D4-tagged gamma2 GABAA receptor extracted from Tetracycline-resistant HEK293 cell membrane incubated for 30 mins.

Assay [2] has as its target T1, GABA-A receptor; alpha-1/beta-3/gamma-2. In words: Positive allosteric modulation on [3H]muscimol binding to full length human N-terminal flag-tagged alpha1-beta3-C-terminal 1D4-tagged gamma2 GABAA receptor extracted from Tetracycline-resistant HEK293 cell membrane assessed as [3H]muscimol binding incubated for 30 mins.
Assay [3] concerns the target T2, GABA-A receptor; alpha-1/beta-3/gamma-2 (Homo sapiens) (UniProt P14867+P18507+P28472). In words: Effect on [3H]muscimol binding to full length human N-terminal flag-tagged alpha1-beta3-C-terminal 1D4-tagged gamma2 GABAA receptor extracted from Tetracycline-resistant HEK293 cell membrane assessed as fold change in [3H]muscimol binding at 300 uM incubated for 30 mins. The conditions noted are these: filed as modulator.

Assay [4] concerns the target T2, GABA-A receptor; alpha-1/beta-3/gamma-2 (Homo sapiens). In words: Inhibition of R-mTFD-MPAB-induced [3H]muscimol binding to full length human N-terminal flag-tagged alpha1-beta3-C-terminal 1D4-tagged gamma2 GABAA receptor extracted from Tetracycline-resistant HEK293 cell membrane assessed as fold change at 300 uM incubated for 30 mins. The note with it: filed as modulator.

For assay [5] the target is unchanged. In words: Inhibition of [3H]flunitrazepam binding to full length human N-terminal flag-tagged alpha1-beta3-C-terminal 1D4-tagged gamma2 GABAA receptor extracted from Tetracycline-resistant HEK293 cell membrane assessed as reduction in [3H]flunitrazepam binding at 300 uM incubated for 30 mins relative to control.
Assay [6] shares this target. In words: Effect on [3H]muscimol binding to full length human N-terminal flag-tagged alpha1-beta3-C-terminal 1D4-tagged gamma2 GABAA receptor extracted from Tetracycline-resistant HEK293 cell membrane assessed as [3H]muscimol binding at 300 uM incubated for 30 mins relative to control.
The target is the same in assay [7]. In words: Inhibition of R-mTFD-MPAB-induced [3H]muscimol binding to full length human N-terminal flag-tagged alpha1-beta3-C-terminal 1D4-tagged gamma2 GABAA receptor extracted from Tetracycline-resistant HEK293 cell membrane at 300 uM incubated for 30 mins relative to control.
Assay [8] shares this target. In words: Positive allosteric modulation on R-mTFD-MPAB-induced [3H]muscimol binding to full length human N-terminal flag-tagged alpha1-beta3-C-terminal 1D4-tagged gamma2 GABAA receptor extracted from Tetracycline-resistant HEK293 cell membrane at 300 uM incubated for 30 mins relative to control.
Assay [9] has the same target. In words: Modulation of [3H]flunitrazepam binding to full length human N-terminal flag-tagged alpha1-beta3-C-terminal 1D4-tagged gamma2 GABAA receptor extracted from Tetracycline-resistant HEK293 cell membrane assessed as fold change in [3H]flunitrazepam binding at 300 uM incubated for 30 mins. The conditions noted are these: filed as modulator.
The target in assay [10] is T1, GABA-A receptor; alpha-1/beta-3/gamma-2. In words: Mixed-type inhibition of R-mTFD-MPAB-induced [3H]muscimol binding to full length human N-terminal flag-tagged alpha1-beta3-C-terminal 1D4-tagged gamma2 GABAA receptor extracted from Tetracycline-resistant HEK293 cell membrane incubated for 30 mins.
Assay [11] shares this target. In words: Mixed effect on [3H]muscimol binding to full length human N-terminal flag-tagged alpha1-beta3-C-terminal 1D4-tagged gamma2 GABAA receptor extracted from Tetracycline-resistant HEK293 cell membrane assessed as [3H]muscimol binding incubated for 30 mins.

Some results are limits rather than exact numbers.

As to `O=C1NC(=O)C2(CC(O)c3ccccc32)C(=O)N1` (stereo in doubt; 1t-2), in assay [1], the IC50 (as a rule, the point on the concentration scale where inhibition reaches its midpoint) is 113 µM.
With `CC(C)c1ccc2c(c1)C1(CC2)C(=O)NC(=O)N(C)C1=O` (stereo in doubt; 5h-1) [listing 1 of 2 here], the EC50 (as a rule, the concentration at which the effect is half-maximal) in [2] is 32 µM.
`O=C1NC(=O)C2(CCc3ccccc32)C(=O)N1`: the values for the fold change (FC) in [3] and in assay [4] were -0.02 and 0.53, respectively. Also, the IC50 in [1] worked out at 18 µM. The inhibition (as a rule, the change of the read-out against control, counted positive when it falls) in [5] was found to be 12%.
On to `CN=C1NC(=O)C2(CCc3ccccc32)C(=O)N1` (configuration not stated), for which the fold change (FC) was -0.09 in assay [3] and 0.35 in assay [4]. Besides, in [1], the IC50 was 99 µM.
With `CC(C)c1ccc2c(c1)C1(CC2)C(=O)NC(=O)NC1=O`, the fold change (FC) turned out to be 0.26 in assay [3] and 0.9 in assay [4]. Further, the Activity was under 10% in assay [6] and 20% in assay [8]. The inhibition in assay [7] is over 40%. Moreover, the EC50 in assay [2] turned out to be 22 µM.
Consider `CC(C)c1ccc2c(c1)C1(CC2)C(=O)NC(=O)N(C)C1=O` (stereo in doubt; 5h-1) [listing 2 of 2 here], for which the fold change (FC) in assay [3] was found to be 0.8; in assay [4], 0.73; in [9], 0.84. In [8] (filed as positive allosteric modulator), the Activity turned out to be 80%. For the same compound, the inhibition in assay [5] was 12%.
Regarding `Cc1ccc2c(c1)C1(CC2)C(=O)NC(=O)N(C)C1=O` (stereo in doubt; 4h-2) [listing 1 of 2 here], the IC50 in assay [10] turned out to be 38 µM. In addition, the EC50 in assay [11] was 32 µM.
As for `CC(C)c1ccc2c(c1)C1(CC2)C(=O)NC(=O)N(C)C1=O` (stereo in doubt; 5h-2), the EC50 in assay [2] came to 38 µM.
With `Cc1ccc2c(c1)C1(CC2)C(=O)NC(=O)N(C)C1=O` (stereo in doubt; 4h-2) [listing 2 of 2 here], the fold change (FC) in [3] is 0.37; in [4], 0.54; in [9], 0.72. Moreover, in assay [5], the inhibition worked out at 12%.

The values are drawn from ChEMBL document CHEMBL6134857, “Novel Spiro-Barbiturates Can Reverse the Action of General Anesthetics on the GABAAR” (J Med Chem, 2025).
